Data set [1] deals with neuron-differentiated SH-SY5Y cells. The experiment in a line: LDH release assay in neuron-differentiated SH-SY5Y cells. It is filed as cell-based, human. The following applies: for LDH release, dose-response pattern: increasing concentrations. As for the experimental part: (§1) Rat cortical neurons were dissociated using a papain dissociation kit following manufacturer's instructions (Worthington, NJ; Cat #LK003150). Neurons were cultured in neurobasal medium with B27 supplement with 2 mM glutamine, 50 U/ml penicillin and 50 μg/mL. SH-SY5Y and B103 cells were cultured in DMEM (Sigma Cat #D6429-500M) supplemented with 5% fetal bovine serum. SH-SY5Y cells were differentiated with the addition of 10 μM retinoic acid for 7 days prior to experimentation. LDH assays were conducted with a LDH assay kit following manufacturer's instructions (cat #88954).

The subject of a further data set is B103-EV cells. The experiment in a line: LDH release assay in B103 cells with empty vector (lack APP). The following applies: absence of APP, 18 hours. It is filed as cell-based, rat. As for the experimental part:
as §1, with “experimentation. Transfections were conducted using Lippofectamine LTX (Thermofisher; cat #A12621) according to the manufacturer's instructions.” for “experimentation.”

The test system of data set [2] is B103-APP695 cells. The experiment in a line: LDH release assay in B103 cells stably transfected with APP695. It is filed as cell-based, rat. How it is done: as §1, with “experimentation. Transfections were conducted using Lippofectamine LTX (Thermofisher; cat #A12621) according to the manufacturer's instructions.” for “experimentation.”
Data set [3] deals with B103-APP695 cells. The experiment in a line: LIVE/DEAD assay in B103-APP695 cells. Type of data set: cell-based, rat. The following applies: 50 μM 27OHC, APP-expressing cells. As for the experimental part: Live dead cell assays were conducted with live dead cell assay kit according to the manufacturer's instructions (Thermofisher #L3224).
Data set [4] concerns binding of AICD to the MAST4 promoter. The experiment in a line: ChIP, AICD binding to MAST4 promoter, SH-SY5Y cells. Type of data set: cell-based, human. The conditions noted are these: 5 μM 27OHC. As for the experimental part:
(§2) Chromatin Immunoprecipitation (ChIP) assays were conducted according to standard protocols published by ABcam. Following treatments, cells were incubated with formaldehyde at a final concentration of 0.75% for 10 minutes followed by glycine at a final concentration of 125 mM for an additional 5 minutes. Cells were then washed two times with Phosphate Buffered Saline (PBS) and lysed in FA lysis buffer (50 mM HEPES-KOH PH 7.5, 140 mM NaCl, 1 mM EDTA, 1% Triton X-100, 0.1% Sodium Deoxycholate, 0.1% SDS, protease inhibitors). Resulting cell lysates were sonicated to fragment DNA, spun down, and incubated with antibody conjugated protein A sepharose beads (ThermoFisher cat #101041) overnight with gentile agitation. Following incubation, beads were pelleted, washed three times with FA lysis buffer, and DNA was eluted with elution buffer (1% SDS, 100 mM NaHCO3). Resulting DNA fragments were further purified with a DNA purification kit (Clontech cat #740609.250) prior to qPCR analysis. Antibodies used were anti-APP C-terminus (Sigma #A8717); anti-FOXO1 (Abcam #39670).

Data set [5] has the same test system. Description: ChIP, AICD binding to MAST4 promoter, transfected B103 cells. Type of data set: cell-based, rat. As for the experimental part: as §2
Data set [6] has the same test system. Description: ChIP, AICD binding to MAST4 promoter, rat cortical neurons. It is filed as cell-based. The following applies: 5 μM 27OHC. How it is done: (§3) Rat cortical neurons were dissociated using a papain dissociation kit following manufacturer's instructions (Worthington, NJ; Cat #LK003150). Neurons were cultured in neurobasal medium with B27 supplement with 2 mM glutamine, 50 U/ml penicillin and 50 μg/mL. SH-SY5Y and B103 cells were cultured in DMEM (Sigma Cat #D6429-500M) supplemented with 5% fetal bovine serum. SH-SY5Y cells were differentiated with the addition of 10 μM retinoic acid for 7 days prior to experimentation.
as §2, with “Resulting DNA fragments were further purified with a DNA purification kit (Clontech cat #740609.250) prior to qPCR analysis. Antibodies used were anti-APP C-terminus (Sigma #A8717); anti-FOXO1 (Abcam #39670).” left out

The subject of data set [7] is MAST4 mRNA. Description: qPCR of MAST4 mRNA, SH-SY5Y cells. It is filed as cell-based, human. The following applies: 5 μM 27OHC. As for the experimental part: (§4) RNA was purified using TRIzol LS reagent according to the manufacturer's instructions (Thermofisher cat #10296010).
(§5) mRNA was purified with TRIzol reagent, converted to cDNA with reverse transcriptase according to the manufacturer's instructions and quantified with iTaq Universal SYBR Green Supermix (Bio-Rad cat #1725120). Results were determined using the delta-delta cycle threshold (ct) method.

Data set [8] deals with MAST4 mRNA. Description: qPCR of MAST4 mRNA, transfected B103 cells. Type of data set: cell-based, rat. The conditions noted are these: B103 APP695, 5 μM 27OHC. How it is done: as §4, §5
For data set [9], the system named is MAST4 mRNA. The experiment in a line: qPCR of MAST4 mRNA, rat cortical neurons. Type of data set: cell-based. The following applies: 5 μM 27OHC. How it is done: as §4, §5
A further data set has as its system MAST4 protein expression. Description: Immunoblot of MAST4 protein, SH-SY5Y cells. The conditions noted are these: 5 μM 27OHC. It is filed as cell-based, human. How it is done:
(§6) Immunoblotting was conducted as previously described with the following antibodies: APP (Sigma #A8717; Millipore #22C11); MAST4 (GeneTex #GTX87899); FOXO1 (Cell Signaling Technology #2880); RTKN2 (Proteintech #17458-1-AP); caspase-3 (Cell Signaling Technology #9662); caspase-7 (Cell Signaling Technology #9492); actin (Sigma #A5316) (7).

The subject of data set [10] is FOXO1 phosphorylation by MAST4 kinase. Description: MAST4 in vitro kinase assay on immunoprecipitates from treated cells. It is filed as cell-based, human. How it is done: Immunoprecipitations were conducted as outlined by ABcam under non-denaturing conditions.
Kinase activity was measured at 37° C. for 30 minutes in 50 μl kinase buffer (50 mM Tris, pH 7.4, 10 mM MgCl2) supplemented with 50 μM ATP and human recombinant FOXO1 (1 μg; Origene #TP300477). Kinase reactions were run on 4-20% Tris-Glycine polyacrylamide gels (Thermofisher) and byproducts identified with anti phospho-Serine/Threonine antibody (Abcam ab17464).

For data set [11], the system named is binding of FOXO1 to the RTKN2 promoter. The experiment in a line: ChIP, FOXO1 binding to RTKN2 promoter, SH-SY5Y cells. Type of data set: cell-based, human. The conditions noted are these: 5 μM 27OHC. As for the experimental part:
as §2

For data set [12] the test system is unchanged. Description: ChIP, FOXO1 binding to RTKN2 promoter, transfected B103 cells. It is filed as cell-based, rat. The conditions noted are these: B103 expressing APP695, 5 μM 27OHC. How it is done:
as §2

Data set [13] has the same test system. Description: ChIP, FOXO1 binding to RTKN2 promoter, rat cortical neurons. It is filed as cell-based. How it is done:
as §3, §2

Data set [14] relates to RTKN2 mRNA. Description: qPCR of RTKN2 mRNA, SH-SY5Y cells. The conditions noted are these: control siRNA, 5 μM 27OHC. Type of data set: cell-based, human. How it is done: as §4, §5
Data set [15] deals with RTKN2 mRNA. The experiment in a line: qPCR of RTKN2 mRNA, transfected B103 cells. Type of data set: cell-based, rat. The conditions noted are these: B103 with APP695, 5 μM 27OHC. How it is done:
as §4, §5

The subject of data set [16] is RTKN2 mRNA. The experiment in a line: qPCR of RTKN2 mRNA, rat cortical neurons. It is filed as cell-based. How it is done: as §4, §5
In the next data set the test system is RTKN2 protein expression. Description: Immunoblot of RTKN2 protein, rat cortical neurons. Type of data set: cell-based. The following applies: cytoprotective doses, 2.5 and 5 μM 27OHC. As for the experimental part: as §6
Data set [17] deals with activated caspase-3, activated caspase-7 and Bax/Bcl2 ratio. Description: Immunoblot of active caspases 3 and 7, Bax, Bcl-2 and RTKN2 in treated cells. It is filed as cell-based. How it is done: as §6

Each structure is given as a SMILES string. “Also recorded” adds a separate entry of the source.

For `C[C@@H](CO)CCC[C@@H](C)[C@H]1CC[C@H]2[C@@H]3CC=C4C[C@@H](O)CC[C@]4(C)[C@H]3CC[C@]12C` [27OHC, 27-hydroxycholesterol], the “cytotoxicity (LDH)” value is recorded as “increasing cytotoxicity” in data set [1] (15, 25, and 50 μM treatments); “dose-dependently cytotoxic” with B103-APP695 cells [2] (doses greater than 10 μM). In addition, in data set [1] (18 hours), the “concentration of maximum protective effect (LDH)” value was 5 µM. For the same compound, the “LDH release compared to baseline (solvent alone)” value in data set [1] (concentrations below 10 μM, 18 hours) is “decreased LDH compared to baseline”. In addition, in [1] (higher concentrations (than 10 μM), 18 hours), the “cytotoxicity (LDH release)” value was “dose-dependent cytotoxicity”. Besides, in data set [1] (18 hours), the “LDH release, dose-response pattern” value is reported as “biphasic dose-dependent cellular response”. The “LDH levels, dose-response” value in the data set on B103-EV cells is given as “increased LDH levels in a dose-dependent manner; also recorded: Cytotoxicity is dose-dependent”. For the same compound, in the data set on B103-APP695 cells [2] (5 μM 27OHC), the LDH levels result was “reduced LDH levels”. The “LDH levels, dose-response pattern” value in the data set on B103-APP695 cells [2] (presence of APP695, 18 hours) is given as “biphasic response comparable to that shown by SH-SY5Y cells; also recorded: biphasic pattern”. For the same compound, the dead/live cell abundance entry in the data set on B103-APP695 cells [3] is reported as “protective”. For the same compound, the “AICD binding to the MAST4 promoter” value was “AICD does bind to the MAST4 promoter” in data set [4]; “an effect not seen in cells expressing APPG700A” in data set [5] (B103 expressing APPG700A, 5 μM 27OHC); “increased AICD binding to the MAST4 promoter” in data set [5] (B103 transfected with APP695, 5 μM 27OHC). Further, the “AICD interaction with the MAST4 promoter” value in [6] is reported as “AICD also interacts with the MAST4 promoter”. The entries for the “MAST4 mRNA levels” value with MAST4 mRNA [7], in the data set with MAST4 mRNA [8] and with MAST4 mRNA [9] were “elevated MAST4 mRNA levels”, “elevated MAST4 mRNA levels” and “also present in rat primary neurons”, respectively. Besides, in the data set on MAST4 protein expression, the MAST4 protein expression entry is “MAST4 protein expression increased”. The entries for the “FOXO1 phosphorylation in MAST4 immunoprecipitates” value in data set [10] (cells treated with 5 μM 27OHC) and in data set [10] (cells treated with 50 μM 27OHC) were “Increased FOXO1 phosphorylation” and “No increase in pSer-FOXO1”, respectively. Also, the “FOXO1 binding to the RTKN2 promoter” value is “decrease of that binding” in data set [11]; “FOXO1 binding was also decreased” in data set [12]; “increasing” in data set [13] (15, 25, and 50 μM 27OHC); “decreased binding of FOXO1 to the RTKN2 promoter” in data set [13] (cytoprotective doses, 2.5 and 5 μM 27OHC (b174 prints 5 M)). Besides, the “FOXO1 binding to the RTKN2 promoter: decreased at 5 μM but not 50 μM” value in data set [13] (5 and 50 μM 27OHC, FIG. 3F) is “confirmed in rat cortical neurons”. Moreover, the “RTKN2 mRNA” value with RTKN2 mRNA [14] is “increased RTKN2 mRNA”; with RTKN2 mRNA [15], “RTKN2 was upregulated”; in the data set with RTKN2 mRNA [16] (cytoprotective doses, 2.5 and 5 μM 27OHC), “increased RTKN2 mRNA”. The “RTKN2 mRNA: upregulated at 5 μM but not 50 μM” value with RTKN2 mRNA [16] (5 and 50 μM 27OHC, FIG. 3J) was “confirmed in rat cortical neurons”. For the same compound, the RTKN2 protein expression entry in the data set on RTKN2 protein expression is “increased”. Moreover, the Bcl-2 entry is “robust increase in Bcl-2” in data set [17] (5 μM 27OHC) and “decreased Bcl-2” in data set [17] (50 μM 27OHC). Moreover, the RTKN2 protein entry in [17] (5 μM 27OHC) was “robust increase in Bcl-2 and RTKN2”. Besides, the “active forms of caspases 3 and 7” value is on record as “decrease in active forms of both caspases” in data set [17] (5 μM 27OHC) and “increased the active forms of both caspases” in data set [17] (50 μM 27OHC).
As to `CC(C)C(O)CC[C@@H](C)[C@H]1CC[C@H]2[C@@H]3CC=C4C[C@@H](O)CC[C@]4(C)[C@H]3CC[C@]12C` (stereo partly drawn) [24OHC, 24-hydroxycholesterol], the “LDH release, dose-response pattern” value in data set [1] (18 hours) is given as “had no effect; also recorded: No LDH changes are measurable”.

Values taken from US12486538B2, “Methods of diagnosing alzheimer's disease and risk of progression to alzheimer's disease” (Loma Linda University Health, priority 2016, dated 2025).
